# Data published in patent publication US20240173432A1, “Compositions and Methods for Treatment of Myotonic Dystrophy Type 1 with CRISPR/SluCas9” (Vertex Pharmaceuticals Incorporated, priority 2021, published 2024).
# Key:
# [1] = test system: 3′ UTR of the human DMPK gene; assay: Single-cut screening: indel editing efficiency by Sanger sequencing and ICE analysis in primary DM1 patient myoblasts; format: cell-based; conditions: vehicle-treated samples; for Indel efficiency: single SluCas9 sgRNA RNP in primary DM1 patient myoblasts, Sanger sequencing and ICE analysis; for indel efficiency (Sanger sequencing and ICE analysis): single-cut, SluCas9 RNP, 72 hrs post nucleofection, wild-type allele
# Method in brief: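 Indels were estimated by ICE from Sanger chromatograms of PCR amplicons covering the DMPK 3′ UTR wild-type allele, using only vehicle-treated samples; sgRNAs with R2<0.9 are flagged. Samples came from primary DM1 patient myoblasts (2 × 10^5) harvested 72 h after nucleofection with 30 pmol SluCas9 and 90 pmol single sgRNA RNP.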
# [2] = test system: CUG foci in primary DM1 patient myoblasts; assay: Single-cut screening: FISH staining of CUG RNA foci; format: cell-based, human; conditions: single sgRNA, primary DM1 patient myoblasts; for % of CUG foci free nuclei (DNA-PKi): DNA-PKi treated
# Method in brief: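 CD56-purified primary DM1 patient myoblasts nucleofected with SluCas9:sgRNA RNP (30:90 pmol, single-cut), then DMSO or 3 μM DNA-PK inhibitor for 48 h. At 72 h post-nucleofection, cells fixed and stained for CUG foci with Cy3-PNA(CAG)5 probe (1 ng/μL, 80 °C), co-stained for MBNL1 and Hoechst, imaged by high-content confocal microscopy.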
# [3] = test system: CAG foci in primary DM1 patient myoblasts; assay: Single-cut screening: CAG foci staining; format: cell-based, human; conditions: single sgRNA; for % of CAG foci positive nuclei (DNA-PKi): DNA-PKi treated
# Method in brief: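 Primary DM1 patient myoblasts were PFA-fixed and hybridized with […] (1 ng/μL, 15 min at 80° C) in 30% formamide/2×SSC, followed by anti-MBNL1 immunostaining and Hoechst counterstain. CAG RNA foci were quantified by high-content confocal imaging after single-cut SuCas9 sgRNA editing.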
Substance,Indel efficiency [1] [%],% of CUG foci free nuclei (DNA-PKi) [2] [%],% of CUG foci free nuclei (Vehicle) [2] [%],% of CAG foci positive nuclei (DNA-PKi) [3] [%],% of CAG foci positive nuclei (Vehicle) [3] [%],indel efficiency (Sanger sequencing and ICE analysis) [1]
GGGCGCGGGATCCCCGAAAAAG (guide RNA; chemistry not fully specified) [SluD43],1,20.27,6.41,0.82,1.31,–
GGGGCGCGGGATCCCCGAAAAA (guide RNA; chemistry not fully specified) [SluD44],24,36.44,8.05,2.29,1.49,–
GGGGGTGCGTGGAGGATGGAAC (guide RNA; chemistry not fully specified) [SluD20],24,24.59,13.32,1.1,1.81,–
GGGGTCTCAGTGCATCCAAAAC (guide RNA; chemistry not fully specified) [SluD78],4,27,12.61,1.36,2.31,–
GGGTCGGGGGTGGGGGTCCTAG (guide RNA; chemistry not fully specified) [SluD87],30,39.12,15.16,2.19,1.3,–
GGTCCTGTAGCCTGTCAGCGAG (guide RNA; chemistry not fully specified) [SluD69],14,27.98,10.88,2.13,1.3,–
GGTCGGGGGTGGGGGTCCTAGG (guide RNA; chemistry not fully specified) [SluD86],30,31.62,11.98,3.95,1.98,–
GTATTTATTGTCTGTCCCCACC (guide RNA; chemistry not fully specified) [SluD84],10,30.25,9.15,3.03,1.28,–
"GTCCAGAGCTTTGGGCAGATGG (listed as DNA, chemistry not fully specified) [SluD100]",81,37.39,22.06,3.35,2.15,high editing IN4DEL efficiency
GTCGGGGGTGGGGGTCCTAGGT (guide RNA; chemistry not fully specified) [SluD85],28,29.51,17.4,2.82,2.51,–
GTGCGTGGAGGATGGAACACGG (guide RNA; chemistry not fully specified) [SluD19],24,27.72,12.59,1.68,2.32,–
GTGGATGGGCAAACTGCAGGCC (guide RNA; chemistry not fully specified) [SluD13],55,42.02,15.93,2.77,4.07,–
"GTGGGGACAGACAATAAATACC (listed as DNA, chemistry not fully specified) [SluD83]",70,34,19.15,1.51,1.64,high editing IN4DEL efficiency
"SluD101: downstream SluCas9 sgRNA, presumably SEQ ID NO 167; sequence not in the shown tables (guide AGTCCAGAGCTTTGGGCAGATG; listed as DNA, chemistry not fully specified)",38,33.61,21.35,2.93,2.09,–
"TAGCggccggggagggaggggc (guide RNA; as printed in the source, key not given here) [SluU49]",0,38.7,7.53,1.44,1.03,–
TCAGCCTGGCCGAAAGAAAGAA (guide RNA; chemistry not fully specified) [SluD04],1,19.38,13.29,1.94,1.17,–
TCAGTGCATCCAAAACGTGGAT (guide RNA; chemistry not fully specified) [SluD76],20,29.87,15.78,2.16,1.73,–
TCCAAAACGTGGATTGGGGTTG (guide RNA; chemistry not fully specified) [SluD74],56,31.37,10.6,1.55,2.27,–
TCCGAGAGCAGCGCAAGTGAGG (guide RNA; chemistry not fully specified) [SluD51],33,28.86,14.34,2.13,2.15,–
"TCCGGGCCCGCCCCCTAGCggc (guide RNA; as printed in the source, key not given here) [SluU36]",24,40.62,11.72,1.96,1.05,–
TCGCGCCAGACGCTCCCCAGAG (guide RNA; chemistry not fully specified) [SluD35],0,12.47,6.61,1.13,1.04,–
TCGGCCAGGCTGAGGCCCTGAC (guide RNA; chemistry not fully specified) [SluD05],22,26.99,26.95,1.1,1.42,–
TCTTGTGCATGACGCCCTGCTC (guide RNA; chemistry not fully specified) [SluD31],63,23.95,14.17,3.21,3.06,–
TGCACTGAGACCCCGACATTCC (guide RNA; chemistry not fully specified) [SluD79],2,25.61,11.48,1.79,0.82,–
TGCGCTGCTCTCGGAGCCCCAG (guide RNA; chemistry not fully specified) [SluD54],26,33.12,10.7,2.85,2.11,–
TGCTTTTGCCAAACCCGCTTTT (guide RNA; chemistry not fully specified) [SluD39],39,31.63,9.15,1.68,1.95,–
TGGAAGACTGAGTGCCCGGGGC (guide RNA; chemistry not fully specified) [SluU14],52,58.84,29.12,1.63,1.02,–
